Measured values as given in ChEMBL document CHEMBL3885881, “DrugMatrix”.

Species: Rattus norvegicus
Assay: DrugMatrix - Regimen: Daily Repeat
Format: toxicity, organism-based, Sprague-Dawley
Set-up: regimen Daily Repeat, gender Male, age 6-8 weeks
Conditions: in vivo, po, 20 mg/kg, route oral GAVAGE, dose level Low, vehicle .5 % CMC; for ABSOLUTE BASOPHIL / ABSOLUTE EOSINOPHIL / ABSOLUTE LYMPHOCYTE / ABSOLUTE MONOCYTE / ABSOLUTE SEGMENTED NEUTROPHIL / BASOPHIL / EOSINOPHIL / ERYTHROCYTE COUNT / HEMATOCRIT / HEMOGLOBIN / LEUKOCYTE COUNT / LYMPHOCYTE / MEAN CORPUSCULAR HEMOGLOBIN / MEAN CORPUSCULAR HEMOGLOBIN CONCENTRATION / MEAN CORPUSCULAR VOLUME / MONOCYTE / NEUTROPHIL / NUCLEATED RED BLOOD CELLS / PLATELET COUNT: tissue Blood; for ALANINE AMINOTRANSFERASE / ALKALINE PHOSPHATASE / ASPARTATE AMINOTRANSFERASE / BLOOD UREA NITROGEN / CARBON DIOXIDE / CHLORIDE / CHOLESTEROL / CREATINE PHOSPHOKINASE / CREATININE / GLUCOSE / LACTATE DEHYDROGENASE / LIPASE / PHOSPHORUS / POTASSIUM / SODIUM / TOTAL BILIRUBIN / TOTAL PROTEIN / URIC ACID: tissue Plasma

## O=C1CC2(CCCC2)CC(=O)N1CCCCN1CCN(c2ncccn2)CC1 [BUSPIRONE]
72 h, time 3 day
  ABSOLUTE BASOPHIL: 0 CELLS/uL
  ABSOLUTE EOSINOPHIL: 51 CELLS/uL
  ABSOLUTE LYMPHOCYTE: 11615 CELLS/uL
  ABSOLUTE MONOCYTE: 151.33 CELLS/uL
  ABSOLUTE SEGMENTED NEUTROPHIL: 1416 CELLS/uL
  BASOPHIL: 0%
  EOSINOPHIL: 0.33%
  ERYTHROCYTE COUNT: 5.69 x10E6/uL
  HEMATOCRIT: 36.17%
  HEMOGLOBIN: 14.1 G/DL
  LEUKOCYTE COUNT: 13.23 x10E3/uL
  LYMPHOCYTE: 87.67%
  MEAN CORPUSCULAR HEMOGLOBIN: 24.73 pg
  MEAN CORPUSCULAR HEMOGLOBIN CONCENTRATION: 39 G/DL
  MEAN CORPUSCULAR VOLUME: 63.57 fL
  MONOCYTE: 1%
  NEUTROPHIL: 11%
  NUCLEATED RED BLOOD CELLS: 0.33 /100WBC
  PLATELET COUNT: 1072.33 x10E3/uL
  ALANINE AMINOTRANSFERASE: 59.33 u/L
  ALKALINE PHOSPHATASE: 480 u/L
  ASPARTATE AMINOTRANSFERASE: 97 u/L
  BLOOD UREA NITROGEN: 15 mg/dL
  CARBON DIOXIDE: 23 mmol/L
  CHLORIDE: 102 MEQ/L
  CHOLESTEROL: 82.33 mg/dL
  CREATINE PHOSPHOKINASE: 412 u/L
  CREATININE: 0.23 mg/dL
  GLUCOSE: 167 mg/dL
  LACTATE DEHYDROGENASE: 304.33 u/L
  LIPASE: 9 u/L
  PHOSPHORUS: 13.47 mg/dL
  POTASSIUM: 6.53 MEQ/L
  SODIUM: 146.87 MEQ/L
  TOTAL BILIRUBIN: 0.2 mg/dL
  TOTAL PROTEIN: 6 G/DL
  URIC ACID: 1.9 mg/dL
120 h, time 5 day
  ABSOLUTE BASOPHIL: 0 CELLS/uL
  ABSOLUTE EOSINOPHIL: 106.67 CELLS/uL
  ABSOLUTE LYMPHOCYTE: 13027.67 CELLS/uL
  ABSOLUTE MONOCYTE: 125.67 CELLS/uL
  ABSOLUTE SEGMENTED NEUTROPHIL: 973.33 CELLS/uL
  BASOPHIL: 0%
  EOSINOPHIL: 0.67%
  ERYTHROCYTE COUNT: 5.35 x10E6/uL
  HEMATOCRIT: 34.23%
  HEMOGLOBIN: 13.57 G/DL
  LEUKOCYTE COUNT: 14.23 x10E3/uL
  LYMPHOCYTE: 91.67%
  MEAN CORPUSCULAR HEMOGLOBIN: 25.4 pg
  MEAN CORPUSCULAR HEMOGLOBIN CONCENTRATION: 39.67 G/DL
  MEAN CORPUSCULAR VOLUME: 64.03 fL
  MONOCYTE: 1%
  NEUTROPHIL: 6.67%
  NUCLEATED RED BLOOD CELLS: 0 /100WBC
  PLATELET COUNT: 1461 x10E3/uL
  ALANINE AMINOTRANSFERASE: 42.33 u/L
  ALKALINE PHOSPHATASE: 354 u/L
  ASPARTATE AMINOTRANSFERASE: 77 u/L
  BLOOD UREA NITROGEN: 14.67 mg/dL
  CARBON DIOXIDE: 24.33 mmol/L
  CHLORIDE: 102.33 MEQ/L
  CHOLESTEROL: 67 mg/dL
  CREATINE PHOSPHOKINASE: 241.33 u/L
  CREATININE: 0.14 mg/dL
  GLUCOSE: 154 mg/dL
  LACTATE DEHYDROGENASE: 200.67 u/L
  LIPASE: 8.33 u/L
  PHOSPHORUS: 14.3 mg/dL
  POTASSIUM: 7.16 MEQ/L
  SODIUM: 144.93 MEQ/L
  TOTAL BILIRUBIN: 0.23 mg/dL
  TOTAL PROTEIN: 5.63 G/DL
  URIC ACID: 1.97 mg/dL
